# Laboratory results reported in publication PMC7914897, “Cytotoxic Potential of a-Azepano- and 3-Amino-3,4-SeCo-Triterpenoids” (International Journal of Molecular Sciences, 2021).
# Tests used:
# CCRF-CEM (Leukemia) = experiment: NCI-60 screen (SRB, 48 h); settings: Homo sapiens; for IC (TGI): 48 h, read-out: TGI; for CC50: read-out: LC50
# CAKI-1 (Renal cancer) = experiment: NCI-60 screen (SRB, 48 h); settings: Homo sapiens; for GI50: CAKI-1; for IC (TGI): CAKI-1, 48 h, read-out: TGI; for CC50: CAKI-1, read-out: LC50
# [1] = test system: A2780 (ovarian carcinoma); experiment: SRB cytotoxicity assay, 72 h; format: cell-based, human; settings: Homo sapiens; A2780, 72 h, cut-off 30 µM; read-out: EC50
# Procedure: (§1) The cytotoxicity of compounds 1–20 was evaluated by means of a colorimetric sulforhodamine B (SRB) assay. For all compounds, the EC50 values were determined for the human tumor cell lines A375 (malignant melanoma), HT29 (colorectal carcinoma), MCF-7 (breast carcinoma), A2780 (ovarian carcinoma), FaDu (hypopharyngeal carcinoma), and NIH 3T3 (non-malignant mouse fibroblasts).
# (§2) In short, exponentially growing cells were seeded into 96-well plates on day 0 at the appropriate cell densities to prevent confluence of the cells during the period of experiment. After 24 h, the cells were treated with serial dilutions of the compounds (0–30 µM) for 72 h. The final concentration of DMSO never exceeded 0.5%, which was non-toxic to the cells. After a 72 h treatment, the supernatant medium from the 96-well plates was discarded, and the cells were fixed with 10% TCA. For a thorough fixation, the plates were allowed to rest at 4 °C. After fixation, the cells were washed in a strip washer. The washing was done four times with water using alternate dispensing and aspiration procedures. The plates were then dyed with 100 µL of 0.4% SRB for about 20 min. After dying, the plates were washed with 1% acetic acid to remove the excess of the dye and allowed to air-dry overnight. Tris base solution (200 µL, 10 mM) was added to each well and absorbance was measured at λ = 570 nm (using a 96 well plate reader, Tecan Spectra, Crailsheim, Germany). The percentages of surviving cells relative to untreated controls were determined.
# [2] = test system: HT29 (colorectal carcinoma); experiment: SRB cytotoxicity assay, 72 h; format: cell-based, human; settings: Homo sapiens, HT-29; HT29, 72 h, cut-off 30 µM; read-out: EC50
# Procedure: as §1, §2
# [3] = test system: FaDu (hypopharyngeal carcinoma); experiment: SRB cytotoxicity assay, 72 h; format: cell-based, human; settings: Homo sapiens, cut-off 30 µM, read-out: EC50
# Procedure: as §1, §2
# [4] = test system: A375 (malignant melanoma); experiment: SRB cytotoxicity assay, 72 h; format: cell-based, human; settings: Homo sapiens, A-375, 72 h, A375, 72 h, cut-off 30 µM; read-out: EC50
# Procedure: as §1, §2
# PC-3 (Prostate cancer) = experiment: NCI-60 screen (SRB, 48 h); settings: Homo sapiens; for GI50: PC-3; for IC (TGI): PC-3, 48 h, read-out: TGI; for CC50: PC-3, read-out: LC50
# NSC lung cancer subpanel = experiment: NCI-60 screen, subpanel; settings: Homo sapiens; for IC (TGI): 48 h, read-out: TGI MG_MID; for GI50: read-out: GI50 MG_MID; for CC50: read-out: LC50 MG_MID
# 786-0 (Renal cancer) = experiment: NCI-60 screen (SRB, 48 h); settings: for GI50 / IC (TGI) / CC50: Homo sapiens; for GI50: 786-0; for IC (TGI): 786-0, 48 h, read-out: TGI; for CC50: 786-0, read-out: LC50
# IGROV1 (Ovarian cancer) = experiment: NCI-60 screen (SRB, 48 h); settings: Homo sapiens; for GI50: IGROV-1; for IC (TGI): IGROV-1, 48 h, read-out: TGI; for CC50: IGROV-1, read-out: LC50
# T-47D (Breast cancer) = experiment: NCI-60 screen (SRB, 48 h); settings: Homo sapiens, T47D; for IC (TGI): 48 h, read-out: TGI
# UO-31 (Renal cancer) = experiment: NCI-60 screen (SRB, 48 h); settings: Homo sapiens; for GI50: UO-31; for IC (TGI): UO-31, 48 h, read-out: TGI; for CC50: UO-31, read-out: LC50
# Prostate cancer subpanel = experiment: NCI-60 screen, subpanel; settings: Homo sapiens; for IC (TGI): 48 h, read-out: TGI MG_MID; for GI50: read-out: GI50 MG_MID
# RXF 393 (Renal cancer) = experiment: NCI-60 screen (SRB, 48 h); settings: Homo sapiens; for GI50: RXF 393; for IC (TGI): RXF 393, 48 h, read-out: TGI; for CC50: RXF 393, read-out: LC50
# EKVX (NSC lung cancer) = experiment: NCI-60 screen (SRB, 48 h); settings: Homo sapiens; for IC (TGI): 48 h, read-out: TGI; for CC50: read-out: LC50
# SK-OV-3 (Ovarian cancer) = experiment: NCI-60 screen (SRB, 48 h); settings: Homo sapiens; for GI50: SK-OV-3; for IC (TGI): SK-OV-3, 48 h, read-out: TGI; for CC50: SK-OV-3, read-out: LC50
# KM12 (Colon cancer) = experiment: NCI-60 screen (SRB, 48 h); settings: Homo sapiens; for GI50: KM12; for IC (TGI): KM12, 48 h, read-out: TGI; for CC50: KM12, read-out: LC50
# Renal Cancer subpanel = experiment: NCI-60 screen, subpanel; settings: Homo sapiens; for IC (TGI): 48 h, read-out: TGI MG_MID; for GI50: read-out: GI50 MG_MID; for CC50: read-out: LC50 MG_MID
# K-562 (Leukemia) = experiment: NCI-60 screen (SRB, 48 h); settings: Homo sapiens; for GI50: K562; for IC (TGI): K562, 48 h, read-out: TGI; for CC50: K562, read-out: LC50
# [5] = test system: A549/ATCC (NSC lung cancer); experiment: NCI-60 screen (SRB, 48 h); settings: Homo sapiens; for GI50: A549; for IC (TGI): A549, 48 h, read-out: TGI; for CC50: A549, read-out: LC50
# SK-MEL-2 (Melanoma) = experiment: NCI-60 screen (SRB, 48 h); settings: Homo sapiens; for GI50: SK-MEL-2; for IC (TGI): SK-MEL-2, 48 h, read-out: TGI; for CC50: SK-MEL-2, read-out: LC50
# UACC-62 (Melanoma) = experiment: NCI-60 screen (SRB, 48 h); settings: Homo sapiens; for GI50: UACC-62; for IC (TGI): UACC-62, 48 h, read-out: TGI; for CC50: UACC-62, read-out: LC50
# [6] = test system: NCI-H522 (NSC lung cancer); experiment: NCI-60 screen (SRB, 48 h); settings: Homo sapiens; for GI50: NCI-H522; for IC (TGI): NCI-H522, 48 h, read-out: TGI
compound,measurement,setting,value
C=C(C)[C@@H]1CC[C@]2(C)[C@H](CC=C3[C@@H]4[C@@H](C)[C@H](C)CC[C@]4(CO)CC[C@]32C)[C@@]1(C)CCCN [Compound 19],GI50,CCRF-CEM (Leukemia),1310 nM
same,IC (TGI),CCRF-CEM (Leukemia),5.26 µM
same,CC50,CCRF-CEM (Leukemia),> 50 µM
same,GI50,CAKI-1 (Renal cancer),1690 nM
same,IC (TGI),CAKI-1 (Renal cancer),5.58 µM
same,CC50,CAKI-1 (Renal cancer),17.9 µM
same,EC50,[1],3.3 ± 0.2 µM
same,EC50,[2],1840 ± 200 nM
same,EC50,[3],2950 ± 400 nM
same,EC50,[4],2.97 ± 0.2 µM
same,GI50,PC-3 (Prostate cancer),1650 nM
same,IC (TGI),PC-3 (Prostate cancer),7.48 µM
same,CC50,PC-3 (Prostate cancer),26 µM
same,IC (TGI),NSC lung cancer subpanel,5.16 µM
same,GI50,NSC lung cancer subpanel,1840 nM
same,CC50,NSC lung cancer subpanel,27 µM
same,GI50,786-0 (Renal cancer),840 nM
same,IC (TGI),786-0 (Renal cancer),1.58 µM
same,CC50,786-0 (Renal cancer),2.97 µM
same,GI50,IGROV1 (Ovarian cancer),890 nM
same,IC (TGI),IGROV1 (Ovarian cancer),1.67 µM
same,CC50,IGROV1 (Ovarian cancer),3.14 µM
same,GI50,T-47D (Breast cancer),1510 nM
same,IC (TGI),T-47D (Breast cancer),5.15 µM
same,CC50,T-47D (Breast cancer); read-out: LC50,> 50 µM
same,GI50,UO-31 (Renal cancer),820 nM
same,IC (TGI),UO-31 (Renal cancer),2.24 µM
same,CC50,UO-31 (Renal cancer),9.64 µM
same,IC (TGI),Prostate cancer subpanel,5.25 µM
same,GI50,Prostate cancer subpanel,1430 nM
same,CC50,Prostate cancer subpanel; read-out: LC50 MG_MID,18.7 µM
same,GI50,RXF 393 (Renal cancer),830 nM
same,IC (TGI),RXF 393 (Renal cancer),1.59 µM
same,CC50,RXF 393 (Renal cancer),3.07 µM
same,GI50,EKVX (NSC lung cancer),1080 nM
same,IC (TGI),EKVX (NSC lung cancer),2.94 µM
same,CC50,EKVX (NSC lung cancer),26.5 µM
same,GI50,SK-OV-3 (Ovarian cancer),4.42 µM
same,IC (TGI),SK-OV-3 (Ovarian cancer),12 µM
same,CC50,SK-OV-3 (Ovarian cancer),30.5 µM
same,GI50,KM12 (Colon cancer),910 nM
same,IC (TGI),KM12 (Colon cancer),1.65 µM
same,CC50,KM12 (Colon cancer),3 µM
same,IC (TGI),Renal Cancer subpanel,4.63 µM
same,GI50,Renal Cancer subpanel,1560 nM
same,CC50,Renal Cancer subpanel,13.3 µM
same,GI50,K-562 (Leukemia),1220 nM
same,IC (TGI),K-562 (Leukemia),3.63 µM
same,CC50,K-562 (Leukemia),> 50 µM
same,GI50,[5],1590 nM
same,IC (TGI),[5],5.11 µM
same,CC50,[5],> 50 µM
same,GI50,SK-MEL-2 (Melanoma),1730 nM
same,IC (TGI),SK-MEL-2 (Melanoma),5.04 µM
same,CC50,SK-MEL-2 (Melanoma),18.5 µM
same,GI50,UACC-62 (Melanoma),5.82 µM
same,IC (TGI),UACC-62 (Melanoma),12.6 µM
same,CC50,UACC-62 (Melanoma),27.3 µM
same,GI50,[6],1040 nM
same,IC (TGI),[6],2.17 µM
same,CC50,"[6]; NCI-H522, read-out: LC50",4.54 µM
C=C(C)[C@@H]1CC[C@]2(C)[C@H](C=CC3=C4C[C@@](C)(CO)CC[C@]4(C)CC[C@]32C)[C@@]1(C)CCCN [Compound 20],GI50,CCRF-CEM (Leukemia),2120 nM
same,IC (TGI),CCRF-CEM (Leukemia),5.56 µM
same,CC50,CCRF-CEM (Leukemia),> 100 µM
same,GI50,CAKI-1 (Renal cancer),1520 nM
same,IC (TGI),CAKI-1 (Renal cancer),2.85 µM
same,CC50,CAKI-1 (Renal cancer),5.34 µM
same,EC50,[1],4.35 ± 0.2 µM
same,EC50,[2],1880 ± 300 nM
same,EC50,[3],2660 ± 200 nM
same,EC50,[4],3.13 ± 0.1 µM
same,GI50,PC-3 (Prostate cancer),1700 nM
same,IC (TGI),PC-3 (Prostate cancer),3.28 µM
same,CC50,PC-3 (Prostate cancer),6.33 µM
same,IC (TGI),NSC lung cancer subpanel,3.38 µM
same,GI50,NSC lung cancer subpanel,1710 nM
same,CC50,NSC lung cancer subpanel,6.24 µM
same,Growth % of the Most Sensitive Cell Lines,"786-0 (Renal cancer); 786-0, 1 dose 10 µM",−97.28%
same,GI50,786-0 (Renal cancer),1680 nM
same,IC (TGI),786-0 (Renal cancer),3.44 µM
same,CC50,786-0 (Renal cancer),7.04 µM
same,GI50,IGROV1 (Ovarian cancer),1500 nM
same,IC (TGI),IGROV1 (Ovarian cancer),2.95 µM
same,CC50,IGROV1 (Ovarian cancer),5.8 µM
same,GI50,T-47D (Breast cancer),1670 nM
same,IC (TGI),T-47D (Breast cancer),3.45 µM
same,GI50,UO-31 (Renal cancer),1340 nM
same,IC (TGI),UO-31 (Renal cancer),2.65 µM
same,CC50,UO-31 (Renal cancer),5.24 µM
same,IC (TGI),Prostate cancer subpanel,3.22 µM
same,GI50,Prostate cancer subpanel,1710 nM
same,GI50,RXF 393 (Renal cancer),1620 nM
same,IC (TGI),RXF 393 (Renal cancer),3.07 µM
same,CC50,RXF 393 (Renal cancer),5.81 µM
same,GI50,EKVX (NSC lung cancer),1600 nM
same,IC (TGI),EKVX (NSC lung cancer),3.1 µM
same,CC50,EKVX (NSC lung cancer),6.01 µM
same,GI50,SK-OV-3 (Ovarian cancer),1.72 µM
same,IC (TGI),SK-OV-3 (Ovarian cancer),3.17 µM
same,CC50,SK-OV-3 (Ovarian cancer),5.85 µM
same,GI50,KM12 (Colon cancer),1600 nM
same,IC (TGI),KM12 (Colon cancer),3.02 µM
same,CC50,KM12 (Colon cancer),5.67 µM
same,IC (TGI),Renal Cancer subpanel,3.07 µM
same,GI50,Renal Cancer subpanel,1610 nM
same,CC50,Renal Cancer subpanel,5.86 µM
same,GI50,K-562 (Leukemia),1800 nM
same,IC (TGI),K-562 (Leukemia),5.04 µM
same,CC50,K-562 (Leukemia),> 100 µM
same,GI50,[5],1600 nM
same,IC (TGI),[5],3.18 µM
same,CC50,[5],6.34 µM
same,GI50,SK-MEL-2 (Melanoma),1920 nM
same,IC (TGI),SK-MEL-2 (Melanoma),3.58 µM
same,CC50,SK-MEL-2 (Melanoma),6.66 µM
same,GI50,UACC-62 (Melanoma),1.78 µM
same,IC (TGI),UACC-62 (Melanoma),3.17 µM
same,CC50,UACC-62 (Melanoma),5.66 µM
same,GI50,[6],1830 nM
same,IC (TGI),[6],3.63 µM
